Experimental data published in the supplement of paper PMC8882468.
Where “and” joins values, the source holds several entries; their conditions need not be identical. Equal values may be shown once.

Columns and labels:
Experiment in all cases: CTG-3D luminescence at 96 h relative to day-0 seeding control (ratio to day 0); higher = more growth / less cytotoxicity; PDxO 3D drug screen (set 2), 96 h, CTG-3D normalised to day-0 seeding control.
HCI-001 = test system: HCI-001 (organoid from a triple-negative breast cancer xenograft)
HCI-003.E2 = test system: HCI-003.E2 (organoid from an ER-positive breast cancer xenograft)
HCI-005.E2 = test system: HCI-005.E2 (organoid from a breast cancer xenograft with a HER2-positive history)
HCI-010 = test system: HCI-010 (organoid from a breast cancer xenograft)
HCI-012 = test system: HCI-012 (organoid from a breast cancer xenograft)
HCI-015 = test system: HCI-015 (organoid from a triple-negative breast cancer xenograft)
MDA-MB-231 = test system: MDA-MB-231

C[C@@H](Nc1cc(F)cc(F)c1)c1cc(C(=O)N(C)C)cc2c(=O)cc(N3CCOCC3)oc12 [AZD-8186]
CTG-3D luminescence at 96 h
Settings | 12.5 pM | 0.00025 µM | 0.005 µM | 0.1 µM | 1 µM | 10 µM | 100 µM | 625 fM
HCI-001, days in culture: 365 | 2.63 | 2.2 | 2.38 | 2.83 | 1.84 | 1.13 | 1.08 | 1.53
HCI-001, days in culture: 397 | 1.79 | 2.6 | 2.23 | 2.14 | 1.81 | 1.69 | 0.737 | 1.6
HCI-001, days in culture: 401 | 1.64 | 1.69 | 1.59 | 1.76 | 1.28 | 1.24 | 0.924 | 1.69
HCI-010, days in culture: 79 | 1.88 | 1.85 | 1.94 | 1.98 | 1.58 | 1.1 | 0.138 | 2.14
HCI-010, days in culture: 86 | 2.26 | 2.36 | 2.34 | 2.1 | 1.99 | 1.67 | 0.321 | 2.16
HCI-010, days in culture: 102 | 1.18 | 0.973 | 1.18 | 1.19 | 1.19 | 0.856 | 0.0314 | 1.26
HCI-010, days in culture: 164 | 1.6 | 1.49 | 1.64 | 1.37 | 1.4 | 1.02 | 0.0763 | 1.52
HCI-012, days in culture: 214 | 3.16 | 3.58 | 2.36 | 2.15 | 1.61 | 1.53 | 0.299 | 3
HCI-012, days in culture: 243 | 1.81 | 2.44 | 1.8 | 2.35 | 1.56 | 1.4 | 0.468 | 2.52
HCI-012, days in culture: 256 | 2.2 | 2.24 | 2.12 | 3.26 | 1.35 | 0.936 | 0.409 | 2.45
HCI-012, days in culture: 284 | 1.94 | 2.57 | 2.11 | 2.5 | 1.45 | 2.64 | 0.535 | 2.65
HCI-015, days in culture: 333 | 2.09 | 1.46 | 1.76 | 1.33 | 1.37 | 0.684 | 0.452 | 1.77
HCI-015, days in culture: 355 | 1.76 | 3.09 | 1.3 | 1.46 | 1.12 | 2.35 | 0.668 | 1.57
HCI-015, days in culture: 369 | 2.35 | 1.7 | 1.96 | 1.84 | 2.18 | 1.24 | 1.01 | 1.96

CTG-3D luminescence at 96 h
Settings | 12.5 pM | 0.00025 µM | 0.005 µM | 0.1 µM | 1 µM | 10 µM | 100 µM | 625 fM
HCI-003.E2 | 2.53 | 2.56 | 2.18 | 2.38 | 2.13 | 1.28 | 0.0452 | 2.58
HCI-005.E2 | 1.82 | 2.18 | 2.26 | 2.54 | 2.24 | 1.51 | 0.592 | 1.97
MDA-MB-231 | 5.61 and 5.06 | 5.71 and 5.14 | 5.56 and 5.16 | 5.39 and 4.98 | 5.11 and 4.76 | 4.68 and 4.38 | 2.77 and 2.47 | 5.47 and 5.15

COc1cccc2c1C(=O)c1c(O)c3c(c(O)c1C2=O)C[C@@](O)(C(=O)CO)C[C@@H]3O[C@H]1C[C@H](N)[C@@H](O)[C@H](C)O1 [epirubicin]
CTG-3D luminescence at 96 h
Settings | 12.5 pM | 0.00025 µM | 0.005 µM | 0.1 µM | 1 µM | 10 µM | 100 µM | 625 fM
HCI-001, days in culture: 365 | 2.72 | 2.24 | 2.31 | 1.83 | 0.374 | 0.226 | -0.00151 | 2.09
HCI-001, days in culture: 397 | 1.49 | 2.3 | 1.7 | 1.3 | 0.405 | 0.197 | -0.00311 | 1.83
HCI-001, days in culture: 401 | 1.41 | 1.96 | 1.6 | 1.06 | 0.216 | 0.3 | -0.00404 | 1.55
HCI-010, days in culture: 79 | 1.82 | 1.96 | 2.1 | 0.453 | 0.114 | 0.0313 | -0.00605 | 2.12
HCI-010, days in culture: 86 | 1.93 | 2.45 | 2.56 | 0.972 | 0.179 | 0.0423 | -0.00278 | 2.25
HCI-010, days in culture: 102 | 1.1 | 1.22 | 1.01 | 0.19 | 0.064 | 0.0201 | -0.000814 | 0.986
HCI-010, days in culture: 164 | 1.68 | 1.75 | 1.67 | 0.67 | 0.214 | 0.0976 | -0.00123 | 1.45
HCI-012, days in culture: 214 | 2.15 | 2.5 | 1.28 | 0.214 | 0.0452 | 0.0186 | -0.0053 | 5.03
HCI-012, days in culture: 243 | 1.9 | 2.59 | 1.74 | 0.228 | 0.0532 | 0.0739 | -0.006 | 2.23
HCI-012, days in culture: 256 | 1.75 | 2.22 | 1.73 | 0.43 | 0.059 | 0.0309 | -0.0077 | 2.4
HCI-012, days in culture: 284 | 1.9 | 2.3 | 1.39 | 0.413 | 0.0294 | 0.0662 | -0.00241 | 3.07
HCI-015, days in culture: 333 | 2.58 | 1.36 | 1.49 | 0.405 | 0.191 | 0.0651 | 0.000859 | 1.94
HCI-015, days in culture: 355 | 2.99 | 2 | 0.533 | 0.761 | 0.192 | 0.0805 | 0.00144 | 1.85
HCI-015, days in culture: 369 | 2 | 1.58 | 2.14 | 0.514 | 0.143 | 0.117 | 0.000973 | 2.07

CTG-3D luminescence at 96 h
Settings | 12.5 pM | 0.00025 µM | 0.005 µM | 0.1 µM | 1 µM | 10 µM | 100 µM | 625 fM
HCI-003.E2 | 2.55 | 2.48 | 2.34 | 2.23 | 0.712 | 0.0173 | 0.000274 | 3.06
HCI-005.E2 | 1.54 | 1.65 | 1.41 | 0.977 | 0.0317 | 0.00772 | -0.000128 | 1.98
MDA-MB-231 | 5.46 and 4.99 | 5.52 and 4.95 | 4.84 and 4.76 | 3.26 and 3.33 | 0.232 and 0.543 | 0.504 and 0.188 | -0.0125 and -0.0119 | 5.48 and 5.03
